Results published in PubChem BioAssay (NCI).
Several values for one entry are separate records, joined by “and”; a condition that tells them apart may be missing. Equal values may be shown once.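 The compound was tested at five concentrations on cells cultured in 96-well plates, with a 48-hour exposure period. Abbreviation: GI50, concentration required for 50% inhibition of growth. TGI denotes the concentration required for complete inhibition of growth.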

What was measured:
Experiment in all cases: NCI tumour cell line growth inhibition, 48 h
[1] = tested on: SF-268 CNS
[2] = tested on: SK-MEL-2 melanoma
[3] = tested on: CCRF-CEM leukemia
[4] = tested on: 786-0 renal
[5] = tested on: OVCAR-5 ovarian
[6] = tested on: SF-295 CNS
[7] = tested on: OVCAR-4 ovarian
[8] = tested on: MOLT-4 leukemia
[9] = tested on: OVCAR-3 ovarian
[10] = tested on: MCF7 breast

SMILES | TGI [1] | TGI [2] | TGI [3] | TGI [4] | TGI [5] | TGI [6] | TGI [7] | TGI [8] | TGI [9] | GI50 [1] | GI50 [2] | GI50 [4] | GI50 [10] | TGI [10] | GI50 [5] | GI50 [6] | GI50 [7] | GI50 [9] | GI50 [3] | GI50 [8]
CCOc1ccc2c(c1)[n+]([O-])c(C(N)=O)c(N)[n+]2[O-] | > 100 µM | > 100 µM | > 100 µM | > 100 µM | > 100 µM | > 100 µM | > 100 µM | > 100 µM | > 100 µM | – | – | – | – | – | – | – | – | – | – | –
[Cu].c1ccc2c(c1)C1=NC2=NC2=NC(=NC3=NC(=NC4=NC(=N1)c1ccccc14)c1ccccc13)c1ccccc12 | > 100 µM | > 100 µM | – | > 100 µM | > 100 µM | > 100 µM | > 100 µM | – | > 100 µM | > 100 µM | > 100 µM | > 100 µM | > 100 µM | > 100 µM | > 100 µM | > 100 µM | > 100 µM | > 100 µM | – | –
CC(C)N1CCOC(c2ccc(O)c(O)c2)C1 (stereo unspecified) | > 100 µM | > 100 µM | > 100 µM | > 100 µM | > 100 µM | > 100 µM | > 100 µM | > 100 µM | > 100 µM | – | – | – | – | – | – | – | – | – | – | –
Cc1cccc(-c2nc(=S)[nH][nH]2)c1 | > 100 µM | > 100 µM | > 100 µM | > 100 µM | > 100 µM | > 100 µM | > 100 µM | > 100 µM | > 100 µM | – | – | – | – | – | – | – | – | – | – | –
CC1=NC2(C(=O)O)C3(C(=O)O)N=C(C)OC3(C(F)(F)F)C2(C(F)(F)F)O1 (stereo unspecified) | > 100 µM | > 100 µM | > 100 µM | > 100 µM | > 100 µM | > 100 µM | > 100 µM | > 100 µM | > 100 µM | – | – | – | – | – | – | – | – | – | – | –
CCOc1ccc2c(c1)[n+]([O-])c(-c1ccccc1)c(N)[n+]2[O-] | > 100 µM | > 100 µM | > 100 µM | > 100 µM | > 100 µM | > 100 µM | > 100 µM | > 100 µM | > 100 µM | – | – | – | – | – | – | – | – | – | – | –
O=S(=O)(c1ccccc1)N1CCC1c1ccccc1 (stereo unspecified) | > 100 µM | > 100 µM | > 100 µM | > 100 µM | – | > 100 µM | > 100 µM | > 100 µM | > 100 µM | – | – | – | – | – | – | – | – | – | – | –
Cc1cc[c]([Sb]2[O]C(CO)C(C(O)C(O)C(=O)O)[O]2)cc1 (stereo unspecified) | > 100 µM | 45.5 µM | > 100 µM | > 100 µM | 75.2 µM | > 100 µM | > 100 µM | > 100 µM | > 100 µM | > 100 µM | 21.4 µM | 38.4 µM | – | – | 29.2 µM | 61.1 µM | > 100 µM | > 100 µM | > 100 µM | 78.7 µM
O=C1c2ccccc2C(=O)N1C/C=N/NS(=O)(=O)c1cccc([N+](=O)[O-])c1 | > 100 µM | > 100 µM | > 100 µM | > 100 µM | – | > 100 µM | > 100 µM | > 100 µM | – | – | – | – | – | – | – | – | – | – | – | –
O=c1cc(-c2cccc(Cl)c2)[nH]c2cc3c(cc12)OCO3 | – | 0.582 µM and 0.72 µM | 75 µM and 22.6 µM | 23.4 µM and 23.8 µM | > 100 µM | – | > 100 µM | 75 µM and > 100 µM | – | – | – | 0.544 µM | – | > 100 µM | – | – | 43 µM | – | – | 0.654 µM
[O-]c1ccccc1C=NCCN=Cc1ccccc1[O-].[O]=[U+2]=[O] | 66.5 µM | > 62.7 µM | > 100 µM | 39.2 µM | > 100 µM | > 72.3 µM | 64.1 µM | > 100 µM | 95.3 µM | 25.1 µM | 22 µM | 18.6 µM | – | – | > 100 µM | 28.7 µM | 19 µM | 24.5 µM | 35.3 µM | 53.7 µM
CCN(CC)CC(C(=O)Nc1c(C)cccc1C)/C(C)=N\NC(=S)NN (stereo unspecified) | > 100 µM | > 100 µM | > 100 µM | > 100 µM | > 100 µM | > 100 µM | – | > 100 µM | > 100 µM | – | – | – | – | – | – | – | – | – | – | –
Cc1cc2c(cc1Cl)SC(=Nc1ccc(Cl)cc1)N(S(=O)(=O)c1ccc(Br)s1)S2(=O)=O | > 100 µM | > 100 µM | > 100 µM | 24.7 µM | 34.1 µM | 60.5 µM | 66.3 µM | – | 31.1 µM | 32.2 µM | 35.3 µM | 11.7 µM | 46.3 µM | > 100 µM | 15.7 µM | 24.7 µM | 18.4 µM | 15 µM | 10.1 µM | –
NCCNCCNCc1c2ccccc2c(CNCCNCCN)c2ccccc12 | > 100 µM | > 100 µM | > 100 µM | > 100 µM | > 100 µM | > 100 µM | > 100 µM | > 100 µM | > 100 µM | – | – | – | – | – | – | – | – | – | – | –
CSC(=Nc1ccc([N+](=O)[O-])cc1C#N)NC(=O)c1ccccc1 | > 100 µM | – | > 100 µM | > 100 µM | > 100 µM | > 100 µM | > 100 µM | > 100 µM | > 100 µM | – | – | – | – | – | – | – | – | – | – | –
O=c1[nH]c(=O)n(Cc2ccc(C34CC5CC(CC(C5)C3)C4)c(O)c2)cc1F | 65.6 µM | 39.4 µM | – | 28.5 µM | 33.4 µM | 27.2 µM | 30.2 µM | 32.4 µM | 17.8 µM | 18.5 µM | 15.8 µM | 13.8 µM | 11.9 µM | 30.9 µM | 16.1 µM | 9.62 µM | 13.8 µM | 3.74 µM | – | 12.4 µM
CCN(CC)C(=O)c1cccc2c(OC)ccc(OC)c12 | > 100 µM | > 100 µM | > 100 µM | > 100 µM | > 100 µM | > 100 µM | > 100 µM | > 100 µM | > 100 µM | – | – | – | – | – | – | – | – | – | – | –
CS(=O)(=O)N(CCC#N)c1ccc(/C=C2\N=C(c3ccccc3Cl)OC2=O)cc1 | > 100 µM | > 100 µM | > 100 µM | > 100 µM | > 100 µM | > 100 µM | – | > 100 µM | > 100 µM | – | – | – | – | – | – | – | – | – | – | –
O=c1c(-c2cccc3ccccc23)c(-c2cccc3ccccc23)c1=O | > 53.7 µM | > 78.2 µM | > 50 µM | 12.7 µM | > 84.9 µM | 2.82 µM | – | > 45.2 µM | 11.6 µM | – | – | – | – | – | – | – | – | – | – | –
CC1COS(=O)N1c1ccccc1 (stereo unspecified) | > 100 µM | > 100 µM | > 100 µM | > 100 µM | > 100 µM | > 100 µM | > 100 µM | > 100 µM | – | – | – | – | – | – | – | – | – | – | – | –
